According to patent US7273866B2, “2-aryl thiazole derivatives as KCNQ modulators” (Bristol-Myers Squibb Company, priority 2002, dated 2007):

Test system: KCNQ channels
Assay: Thallium flux assay for KCNQ channel openers
Type: cell-based
Conditions: HEK-293 cells stably transfected with a KCNQ family member; for Min. conc. response: minimal active concentration: lowest concentration giving signal amplitude >= four standard deviations of negative controls; for EC50: thallium flux, 10 point concentration series
Experimental: Thallium Flux Assay for KCNQ channel Openers. The thallium assay is a modification of that published by Weaver and is referenced in its entirety (Weaver, C. D. WO 02/31508, 2002).
Approximately 20,000 cells/well of an HEK-293 cell line stably transfected with one of the members of the KCNQ family were plated into clear-bottom, black-walled, poly-D-lysine coated, 384 well assay plates in 20 μl/well of low chloride plating medium. Low chloride plating medium was composed of the following: sodium gluconate, 109 mM; potassium gluconate, 5.4 mM; hemi-calcium gluconate, 3.6 mM; magnesium sulfate, 0.8 mM; sodium bicarbonate, 26.2 mM; sodium phosphate monobasic, 1.2 mM; glutamine, 2 mM; glucose, 5 mM; 4-(2-hydroxyethyl)-1-piperazineethanesulfonic acid (HEPES) (pH 7.3) 10 mM, MEM vitamin solution (10× concentration of vitamins, Gibco/LifeTechnologies 11120-052) and MEM amino acid solution (1× concentration of amino acids, Gibco/LifeTechnologies 11130-051).
Following overnight incubation in a 5% CO2 incubator at 37° C., the cells in the plates were loaded with 20 μl/well of a dye loading solution containing the commercially available thallium-sensitive fluorescent dye BTC-AM, the acetomethoxy ester of BTC (see U.S. Pat. No. 5,501,980) (2 μM) and pluronic acid F-127 (Molecular Probes P 6867) (0.02% w/v) in chloride free assay buffer. Chloride free assay buffer was composed of the following: sodium gluconate, 140 mM; potassium gluconate, 2.5 mM; hemi-calcium gluconate, 6 mM; hemi-magnesium gluconate, 2 mM; glucose, 5 mM; HEPES (pH 7.3), 10 mM.
Following incubation in the dye loading solution for from 45-90 min at room temperature, the dye loading solution was removed by aspiration and replaced with 40 μl/well of chloride free assay buffer.
Prior to addition to cell plates, test compound and standard compounds were dissolved in DMSO to 3 mM concentration. Compounds were then diluted from the 3 mM stock to 100-fold over the final assay concentration in DMSO. Finally, compounds in DMSO were diluted from 100-fold over the final assay concentration to 5-fold over the final assay concentration in chloride free assay buffer.
Ten μl/well of compounds at 5-fold over the final assay concentration were then added to the cell plates. This represents a 1:5 dilution, yielding the final test concentration. The wells used for test compounds were A1-P20. Wells A21-P22 contained a standard opener and a maximally efficacious concentration (positive control). Wells A23-P24 contained chloride free assay buffer containing 1% DMSO (negative control).
Following addition of test compounds, the plates were loaded onto the Molecular Devices FLIPR. The 488 nm line of the argon laser was used to excite the BTC and the emission filter was a 540(+/−30) nm. Images were collected at 1 Hz. Ten seconds of baseline were collected and then the FLIPR was used to add 13 μl/well of a stimulus buffer composed of 7.5 mM Tl2SO4 in chloride free assay buffer. Images were collected for an additional 60 seconds.
For data analysis, the amplitude of the average of the negative controls was subtracted from all wells. The amplitudes of the test compounds were then compared to the value of four standard deviations of the negative control wells. The lowest concentration of a test compound sufficient to generate a signal amplitude greater than or equal to four standard deviations from the amplitude of the negative controls was defined as the minimal active concentration.
For generating EC50 values, compounds were serially diluted in 1:3 volume increments to produce a 10 point concentration series. EC50 values were calculated by fitting the resulting amplitudes to a single-site logistic equation. EC50 was defined as the concentration of test compound required to yield 50% of the maximal response. Maximal response (Maximal opening) was the largest signal amplitude divided by the negative control amplitude generated by any concentration of a test compound. […]

Compound | Min. conc. response | EC50
COc1ccc(-c2nc(C(F)(F)F)c(C(=O)NC(C)c3cccc(C(F)(F)F)c3)s2)cc1OC (stereo not drawn) [Example 89] | 30 µM | 
CC(NC(=O)c1sc(-c2ccc(N3CCOCC3)cc2)nc1C(F)(F)F)c1cccc(OC(F)(F)F)c1 (stereo not drawn) [Example 58, 2-[4-(4-morpholinyl)phenyl]-4-(trifluoromethyl)-N-[1-[3-(trifluoromethoxy)phenyl]ethyl]-5-thiazolecarboxamide] | 30 µM | 50 to 1000 nM
COc1cccc(-c2nc(C(F)(F)F)c(C(=O)N[C@@H](C)c3cccc(OC(F)(F)F)c3)s2)c1 (stereo in doubt) [Example 24, 2-(3-methoxyphenyl)-4-(trifluoromethyl)-N-[1-[3-(trifluoromethoxy)phenyl]ethyl]-5-thiazolecarboxamide] | 3 µM | 50 to 1000 nM
COc1cccc(-c2nc(C(F)(F)F)c(C(=O)NCc3cccc(F)c3)s2)c1 [Example 85] | 30 µM | 
CCN(CC)CCOc1ccccc1-c1nc(C(F)(F)F)c(C(=O)NCc2cccc(F)c2)s1 [Example 54] | 0.3 µM | 1000 to 20000 nM
COc1ccc(-c2nc(C(F)(F)F)c(C(=O)NCc3cccc(OC(F)(F)F)c3)s2)cc1OC [Example 91] | 30 µM | 
CC(NC(=O)c1sc(-c2ccccc2Cl)nc1C(F)(F)F)c1cccc(CN2CCOCC2)c1 (stereo not drawn) [Example 53, 2-(2-chlorophenyl)-4-(trifluoromethyl)-N-[1-[3-(4-morpholinylmethyl)phenyl]ethyl]-5-thiazolecarboxamide] | 3 µM | 1000 to 20000 nM
COc1cccc([C@H](C)NC(=O)c2sc(-c3ccccc3CN3CCOCC3)nc2C(F)(F)F)c1 [Example 111] | 0.3 µM | 
CC(NC(=O)c1sc(-c2ccccc2Cl)nc1C(F)(F)F)c1cccc(OC(F)(F)F)c1 (stereo not drawn) [Example 49, 2-(2-chlorophenyl)-4-(trifluoromethyl)-N-[1-[3-(trifluoromethoxy)phenyl]ethyl]-5-thiazolecarboxamide] | 0.3 µM | 50 to 1000 nM
COc1cccc([C@H](C)NC(=O)c2sc(-c3cccc(N4CCOCC4)c3)nc2C(F)(F)F)c1 (stereo in doubt) [Example 99] | 3 µM | 
COc1ccc(F)cc1-c1nc(C(F)(F)F)c(C(=O)NC(C)c2cccc(OC(F)(F)F)c2)s1 (stereo not drawn) [Example 41, 2-(5-fluoro-2-methoxyphenyl)-4-(trifluoromethyl)-N-[1-[3-(trifluoromethoxy)phenyl]ethyl]-5-thiazolecarboxamide] | 10 µM | 50 to 1000 nM
CCN(CC)Cc1cccc(C(C)NC(=O)c2sc(-c3cccc4ccccc34)nc2C(F)(F)F)c1 (stereo not drawn) [Example 38, 2-(1-naphthyl)-4-(trifluoromethyl)-N-[1-[3-[(diethylamino)methyl]phenyl]ethyl]-5-thiazolecarboxamide] | 30 µM | 1000 to 20000 nM
CCN(CC)CCOc1ccccc1-c1nc(C(F)(F)F)c(C(=O)N[C@@H](C)c2cccc(N3CCOCC3)c2)s1 [Example 100] | 30 µM | 
COc1ccc(-c2nc(C(F)(F)F)c(C(=O)NC(C)c3cccc(OC(F)(F)F)c3)s2)cc1 (stereo not drawn) [Example 28, 2-(4-methoxyphenyl)-4-(trifluoromethyl)-N-[1-[3-(trifluoromethoxy)phenyl]ethyl]-5-thiazolecarboxamide] | 10 µM | 1000 to 20000 nM
Cc1cccnc1-c1nc(C(F)(F)F)c(C(=O)N[C@@H](C)c2cccc(-c3cccnc3)c2)s1 [Example 73, (S)-2-(3-methylpyridin-2-yl)-4-(trifluoromethyl)-N-[1-[3-(3-pyridinyl)phenyl]ethyl]-5-thiazolecarboxamide] | 0.3 µM | 50 to 1000 nM
CC(NC(=O)c1sc(-c2ccccc2F)nc1C(F)(F)F)c1cccc(N)c1 (stereo not drawn) [Example 102] | 0.3 µM | 
CCN(Cc1cccnc1-c1nc(C(F)(F)F)c(C(=O)NC(C)c2cccc(OC(F)(F)F)c2)s1)C(C)C (stereo not drawn) [Example 70, 2-[3-[ethyl(2-propyl)aminomethyl]pyridin-2-yl]-4-(trifluoromethyl)-N-[1-[3-(trifluoromethoxy)phenyl]ethyl]-5-thiazolecarboxamide] | 3 µM | 50 to 1000 nM
COc1ccc(-c2nc(C(F)(F)F)c(C(=O)NC(C)c3cccc(OC(F)(F)F)c3)s2)cc1OC (stereo not drawn) [Example 29, 2-(3,4-dimethoxyphenyl)-4-(trifluoromethyl)-N-[1-[3-(trifluoromethoxy)phenyl]ethyl]-5-thiazolecarboxamide] | 3 µM | 50 to 1000 nM
CCN(Cc1ccncc1)Cc1cccnc1-c1nc(C(F)(F)F)c(C(=O)NC(C)c2cccc(CN3CCOCC3)c2)s1 (stereo not drawn) [Example 63] | 30 µM | 50 to 1000 nM
C[C@H](NC(=O)c1sc(-c2ccccc2CN2CCOCC2)nc1C(F)(F)F)c1cccc(N2CCOCC2)c1 [Example 110] | 3 µM | 
COc1cccc([C@H](C)NC(=O)c2sc(-c3ccccc3CN(C)C)nc2C(F)(F)F)c1 [Example 76] | 10 µM | 50 to 1000 nM
CC(NC(=O)c1sc(-c2ccccc2N2CCOCC2)nc1C(F)(F)F)c1cccc(OC(F)(F)F)c1 (stereo not drawn) [Example 57, 2-[2-(4-morpholinyl)phenyl]-4-(trifluoromethyl)-N-[1-[3-(trifluoromethoxy)phenyl]ethyl]-5-thiazolecarboxamide] | 0.3 µM | 50 to 1000 nM
CCN(Cc1cccnc1-c1nc(C(F)(F)F)c(C(=O)N[C@@H](C)c2cccc(-c3cccnc3)c2)s1)C(C)C [Example 68, (S)-2-[3-[ethyl(2-propyl)aminomethyl]pyridin-2-yl]-4-(trifluoromethyl)-N-[1-[3-(3-pyridinyl)phenyl]ethyl]-5-thiazolecarboxamide] | 30 µM | 1000 to 20000 nM
CC(NC(=O)c1sc(-c2ccc(F)cc2)nc1C(F)(F)F)c1cccc(OC(F)(F)F)c1 (stereo not drawn) [Example 17, 2-(4-fluorophenyl)-4-(trifluoromethyl)-N-[1-[3-(trifluoromethoxy)phenyl]ethyl]-5-thiazolecarboxamide] | 0.3 µM | < 50 nM
CCN(Cc1ccncc1)Cc1ccccc1-c1nc(C(F)(F)F)c(C(=O)N[C@@H](C)c2cccc(N3CCOCC3)c2)s1 [Example 115] | 3 µM | 
CC(NC(=O)c1sc(-c2ccc(F)cc2)nc1C(F)(F)F)c1cccc(C(F)(F)F)c1 (stereo not drawn) [Example 83] | 0.3 µM | 
COc1cccc(C(C)NC(=O)c2sc(-c3ccccc3N3CCOCC3)nc2C(F)(F)F)c1 (stereo not drawn) [Example 55, 2-[2-(4-morpholinyl)phenyl]-4-(trifluoromethyl)-N-[1-[3-(methoxy)phenyl]ethyl]-5-thiazolecarboxamide] | 0.3 µM | 1000 to 20000 nM
CCN(Cc1ccncc1)Cc1ccccc1-c1nc(C(F)(F)F)c(C(=O)NCc2cccc(OC)c2)s1 [Example 114] | 3 µM | 
CCN(Cc1ccncc1)Cc1ccccc1-c1nc(C(F)(F)F)c(C(=O)NC(C)c2cccc(-c3cccnc3)c2)s1 (stereo not drawn) [Example 117] | 0.3 µM | 
COc1ccccc1-c1nc(C(F)(F)F)c(C(=O)NC(C)c2cccc(OC(F)(F)F)c2)s1 (stereo not drawn) [Example 18, 2-(2-methoxyphenyl)-4-(trifluoromethyl)-N-[1-[3-(trifluoromethoxy)phenyl]ethyl]-5-thiazolecarboxamide] | 0.3 µM | < 50 nM
